Measurements from article PMC7875557, “Development and optimization of sitagliptin and dapagliflozin loaded oral self-nanoemulsifying formulation against type 2 diabetes mellitus” (Drug Delivery, 2020).

Legend:
[1] = DPPH free radical scavenging assay
Method: For antioxidant activity, DPPH (2, 2-diphenyl-1-picrylhydrazyl) free radical scavenging assay was employed. This method was carried out as previously described by Brand-Williams et al. ([1995]). The method quantifies free radical scavenging capacity of the investigated samples. DPPH is a molecule that contains a stable free radical. In the presence of an antioxidant which is able to donate an electron to DPPH, the change in the absorbance at 517 nm is followed spectrophotometrically (UV mini-1240, Shimadzu, Japan). Various concentrations of […] (10, 50, 100, 500, and 1000 μg/mL) were used. The assay mixture was made up of a total volume of 1 mL, containing 500 μL of the sample, 125 μL of the prepared DPPH, and 375 μL of methanol. As positive control, ascorbic acid was used. The samples were incubated for 30 min at 25 °C, after which the decrease in absorbance was measured at λ = 517 nm. Radical scavenging activity of the samples were calculated using the following equation below: (1) % radical scavenging activity=(Abs control − Abs sample/Abs control) ×100

[2] = Equilibrium solubility (shake flask); format: physicochemical; conditions: for Solubility in Water (100%): 100% water
Method: […] The samples were prepared by adding an excess amount of SN and DN to the formulations, which was then thoroughly agitated with a vortex mixer to ensure adequate mixing. Three replicates were taken for each formulation. The samples for the solubility experiments were analyzed using in-house developed UHPLC method by dissolving each of the formulations with an appropriate solvent.

[3] = tested on: Diabetic mice (STZ); assay: Anti-diabetic study in streptozotocin-induced diabetic mice; format: in vivo, Swiss albino mice; conditions: DN 6 mg/kg, SN 10 mg/kg; for Glucose level 0 h: STZ (60 mg/kg) diabetic mice, before dose; for Glucose level 0 h / Glucose level 2 h: Mean ± SEM, n = 3; for Glucose level decrease / Glucose level 2 h / % Inhibition of glucose level: STZ diabetic mice; for Glucose level decrease: 0 h to 2 h; for Glucose level 2 h / % Inhibition of glucose level: 2 h after dose
Method: Male Swiss albino mice (20–25 g) roughly of same age group were procured from the Experimental Animal Care Center, College of Pharmacy, King Saud University, with the approval Clearance No. KSU-SE—19-105 (20th November 2019) by the Ethical committee. The animals used in this study were kept at 22 °C temperature by maintaining 55% humidity and light/dark (12/12 h) conditions. They were provided free access to Purina chow and drinking water ad libitum. The […] were initially acclimatized for seven days prior to being used for the anti-diabetic studies.
Diabetes was induced overnight in fasted mice by single intraperitoneal (IP) injection of 60 mg/kg of streptozotocin (STZ) that was freshly dissolved in 0.1 M cold citrate buffer at pH 4.5. After 72 h of STZ administration, blood was collected from the animals and plasma glucose levels were examined. Animals that were confirmed diabetic by the elevated plasma glucose levels (>200 mg/dl) were used for the experiment. The animals were then randomly assigned into seven groups of three animals and received the following treatments: Group I: Normal control mice treated with Normal saline; Group II: Diabetic control mice treated with Normal saline; Group III: Diabetic mice treated with thymoquinone 5 mg/kg (IP); Group IV: Diabetic mice treated with DN 6 mg/kg (IP); Group V: Diabetic mice treated with SN 10 mg/kg (IP); Group VI: Diabetic mice treated with DN 6 mg/kg (IP) and SN 10 mg/kg (IP); Group VII: Diabetic mice treated with marketed product Dapazin® 6 mg/kg (IP).

[4] = In vivo oral bioavailability / pharmacokinetic study; conditions: male, Wister, rat, plasma, 6 mg/kg; rats, after oral administration; read-out: Time to peak plasma levels
Method: Male rats (Wister, 200–220 g) were obtained from Laboratory Animal Center of pharmacy college, KSU. The rats were randomly allocated into two groups, each group consisted of six rats: the representative SNEDDS [F1, BSO/CMCM/CrEL (15/35/50%w/w)] (group A) and marketed drug (group B). The animals were fasted for 12 h prior to the oral administration of SNEDDS of DN (6 mg/kg rat). The experimental procedures were carried out in accordance with the principles of National Institute of Health Guide for the Care and Use of Laboratory Animals (NIH Publications No. 80–23; 1996) as well as the animal facilities guidelines from the Ethical committee of Experimental Animal Care Center, College of Pharmacy, King Saud University (Clearance No. KSU-SE—19-105; 20th November 2019). […]
In vivo animal studies were performed using only DN in the dose and SN was not included due to the different pharmacokinetic features of the SN and DN. […] The concentration of DN in plasma was determined by UHPLC as follow: A 775 μL of methanol was added to 225 μL aliquot of plasma. […] The nonlinear pharmacokinetic parameters such as Cmax, Tmax, and AUC(0–∞) were determined.
The pharmacokinetic assessment was done after oral administration on the basis of DN concentrations in the plasma samples of the rat. […] This was vortexed and transferred to an auto sampler vial to be analyzed in the UHPLC system. […]

[5] = tested on: SGLT2; conditions: ref Santos et al., 2017, Wilding et al.; cited from earlier work
[6] = β-carotene–linoleic acid (bleaching) assay; conditions: 1000 µg
Method: The antioxidant activity of the samples were evaluated using the β-carotene bleaching method described by Velioglu et al. ([1998]) with modifications. One milliliter (1 mL) of a 0.2 mg/mL solution of β -carotene in chloroform was added to flasks containing 0.2 mL of Tween 20 and 0.02 mL of linoleic acid. The chloroform was removed in a rotary evaporator at 40 °C. The resulting mixture was then diluted with 100 mL of distilled water and mixed for approximately 2 min to form an emulsion. Similarly, another mixture was prepared without β-carotene to use as a blank. A control containing 0.2 mL of 80% (v/v) methanol was also used instead of sample. Aliquot of the emulsion (5 mL) was added to 0.2 mL of the sample at 1 mg/mL. As a standard, Rutin (1 mg/mL) was used. The tubes were incubated in a water bath at 40 °C for 2 h. Absorbance was measured at 470 nm at 15 min intervals, using a UV–visible spectrophotometer (UV mini-1240, Shimadzu, Japan) and the antioxidant activity was calculated from the equation below: (2) % of antioxidant activity= (Abs0 − Abst)/(Abs0° − Abst°) ×100 where, Abs0 and Abs0° represented the absorbance values measured at zero time of incubation for sample extract and control, respectively. Abst and Abst° are the absorbance values at t = 120 min for samples and control, respectively.

O=C1O[C@H]([C@@H](O)CO)C(O)=C1O [Ascorbic acid]
Radical scavenging activity ([1]; 10 µg): 33.7 ± 3.5% | Radical scavenging activity ([1]; 50 µg): 74.1 ± 1.3% | Radical scavenging activity ([1]; 100 µg): 85.6 ± 3.2% | Radical scavenging activity ([1]; 500 µg): 88.7 ± 2.7% | Radical scavenging activity ([1]; 1000 µg): 91.7 ± 3.4%

N[C@@H](CC(=O)N1CCn2c(nnc2C(F)(F)F)C1)Cc1cc(F)c(F)cc1F [Sitagliptin, sitagliptin]
Solubility in Water (100%) [2]: 3.62 ± 0.11 mg/g | Loading of SN in the anhydrous SNEDDS relative to aqueous solubility ([2]; from equilibrium solubility of diluted formulations): > 400% | Glucose level 0 h [3]: 381.33 ± 11.25 mg/dL | Glucose level decrease [3]: 208 mg/dL | Glucose level 2 h [3]: 173.33 ± 7.53 mg/dL | % Inhibition of glucose level ([3]; listed as SN): 54.54% | % Inhibition of glucose level ([3]; listed as SN (Pure)): 54.54↓ %

CCOc1ccc(Cc2cc([C@@H]3O[C@H](CO)[C@@H](O)[C@H](O)[C@H]3O)ccc2Cl)cc1 [Dapagliflozin, dapagliflozin]
Solubility in Water (100%) [2]: 1.48 ± 0.14 mg/g | Glucose level 0 h [3]: 362.00 ± 4.93 mg/dL | Glucose level decrease [3]: 143 mg/dL | Glucose level 2 h [3]: 219.00 ± 7.57 mg/dL | % Inhibition of glucose level ([3]; listed as DN): 39.50% | % Inhibition of glucose level ([3]; listed as DN (pure)): 39.50↓ % | Tmax [4]: ≤ 4 h | Selectivity for SGLT2 over SGLT1 [5]: 1200 fold

C[C@@H]1O[C@@H](OC[C@H]2O[C@@H](Oc3c(-c4ccc(O)c(O)c4)oc4cc(O)cc(O)c4c3=O)[C@H](O)[C@@H](O)[C@@H]2O)[C@H](O)[C@H](O)[C@H]1O [Rutin]
Total antioxidant activity [6]: 93.1 ± 1.2%
